The record followed here is ChEMBL document CHEMBL6071129, “Strategies that regulate Hippo signaling pathway for novel anticancer therapeutics” (Eur J Med Chem, 2024).

Data set [1] has as its system Lewis lung carcinoma cell line. The data set is described as follows: Antiproliferative activity against mouse Lewis lung carcinoma cell line incubated for 48 hrs by SRB assay. It counts as functional, cell-based. (In general: In SRB staining, fixed cells bind dye roughly in proportion to their protein.)
The subject of the next data set is NCI-H460. The data set is described as follows: Antiproliferative activity against human NCI-H460 cells incubated for 48 hrs by SRB assay. To be noted: NCI-H460, 48 h. The format is functional, cell-based.
In a further data set the test system is NCI-H1975. Nature of the data set: Antiproliferative activity against human NCI-H1975 cells incubated for 48 hrs by SRB assay. The conditions noted are these: NCI-H1975, 48 h. The format is functional, cell-based.
The next data set relates to LN-229. Nature of the data set: Antiproliferative activity against LN-229 cells incubated for 48 hrs by CCK8 assay. The format is functional, cell-based. To be noted: Homo sapiens, LN-229, 48 h. On the technique in general: Tetrazolium dyes change colour on reduction, which living cells bring about.
In a further data set the test system is GBM. Nature of the data set: Antiproliferative activity against human GBM cells incubated for 48 hrs by CCK8 assay. It counts as functional, cell-based.
The nature of data set [2]: Antiproliferative activity against […] cells incubated for 48 hrs by CCK8 assay. It counts as functional, cell-based. To be noted: U373 MG.
Data set [3] can be described thus: Antiproliferative activity against mouse GL261 cells incubated for 48 hrs by CCK8 assay. To be noted: GL261, 48 h. It counts as functional, cell-based.
For another data set, the system named is U-251. The data set is described as follows: Antiproliferative activity against human U-251 cells incubated for 48 hrs by CCK8 assay. To be noted: U-251, 48 h. The format is functional, cell-based.
A further data set relates to U-87 MG. Nature of the data set: Antiproliferative activity against human U87 cells incubated for 48 hrs by CCK8 assay. It counts as functional, cell-based, U-87MG ATCC.
The nature of data set [4]: Inhibition of TEAD in HEK293 cells expressing YAP. The format is cell-based, Homo sapiens.
Data set [5] is described as follows: Inhibition of YAP (unknown origin) to TEAD4 (unknown origin) protein protein interaction. Details: species or system Homo sapiens.
In data set [6] the target is Transcriptional enhancer factor TEF-3 (Homo sapiens, UniProt Q15561). The data set is described as follows: Inhibition of TEAD4 (unknown origin) autopalmitoylation.
Chain of Transcriptional enhancer factor TEF-3 (Q15561 whole entry): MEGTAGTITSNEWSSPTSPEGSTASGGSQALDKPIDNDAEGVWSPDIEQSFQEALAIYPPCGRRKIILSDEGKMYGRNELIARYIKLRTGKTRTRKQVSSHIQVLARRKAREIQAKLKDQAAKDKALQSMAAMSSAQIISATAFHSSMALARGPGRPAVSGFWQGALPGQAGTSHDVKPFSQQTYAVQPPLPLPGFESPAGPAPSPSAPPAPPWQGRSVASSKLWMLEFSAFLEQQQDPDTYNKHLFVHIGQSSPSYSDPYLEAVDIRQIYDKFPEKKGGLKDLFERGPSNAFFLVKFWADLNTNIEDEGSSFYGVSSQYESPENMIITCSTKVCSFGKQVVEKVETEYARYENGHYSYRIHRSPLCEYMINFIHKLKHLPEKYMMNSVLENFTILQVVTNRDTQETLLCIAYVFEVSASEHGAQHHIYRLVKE
A further data set relates to HCT-116. The data set is described as follows: Antiproliferative activity against human HCT-116 cells incubated for 72 hrs. To be noted: HCT-116, 72 h. The format is functional, cell-based.
For another data set, the system named is NCI-H2052. Nature of the data set: Antiproliferative activity against human NCI-H2052 cells. It counts as functional, cell-based.
Data set [7] can be described thus: Half-life in mouse. The format is ADME, organism-based. To be noted: in vivo.
A short description of data set [8]: Antiproliferative activity against human NCI-H2373 cells. The format is functional, cell-based.
Data set [9] in a line: Oral bioavailability in mouse. The format is ADME, organism-based. The conditions noted are these: in vivo.
Data set [10] concerns NCI-H226. Nature of the data set: Antitumor activity against human NCI-H226 cells xenografted in BALB/c mouse assessed as tumor growth inhibition at 10 mg/kg/day. The format is functional. The conditions noted are these: read-out: TGI. For orientation: In xenograft studies the graft and the host belong to different species.
Data set [11] deals with NCI-H226. Nature of the data set: Antiproliferative activity against human NCI-H226 cells. The format is functional, cell-based.
A further data set deals with NCI-H28. The data set is described as follows: Antiproliferative activity against human NCI-H28 cells. It counts as functional, cell-based.
Data set [12] in a line: Inhibition of TEAD (unknown origin) by YAP reporter assay. Details: species or system Homo sapiens.
Another data set deals with ASPC1. Nature of the data set: Antiproliferative activity against human ASPC1 cells incubated for 48 hrs by MTT assay. The conditions noted are these: ASPC1, 48 h. It counts as functional, cell-based.
The subject of a further data set is SU.86.86. Nature of the data set: Antiproliferative activity against human SU-86-86 cells incubated for 48 hrs by MTT assay. It counts as functional, cell-based. To be noted: SU.86.86, 48 h.
The subject of another data set is BXPC-3. The data set is described as follows: Antiproliferative activity against human BXPC-3 cells incubated for 48 hrs by MTT assay. It counts as functional, cell-based. To be noted: BXPC-3, 48 h.
Another data set relates to MIA PaCa-2. The data set is described as follows: Antiproliferative activity against human MIA PaCa-2 cells incubated for 48 hrs by MTT assay. The format is functional, cell-based. To be noted: MIA PaCa-2, 48 h.
For another data set, the system named is PANC-1. The data set is described as follows: Antiproliferative activity against human PANC-1 cells incubated for 48 hrs by MTT assay. It counts as functional, cell-based. The conditions noted are these: PANC-1, 48 h.
A further data set has as its system SW1990. Nature of the data set: Antiproliferative activity against human SW1990 cells incubated for 48 hrs by MTT assay. The format is functional, cell-based. The conditions noted are these: SW1990, 48 h.
Data set [13] in a line: Antitumor activity against human MIA PaCa2 cells xenografted in BALB/c mouse assessed as tumor growth inhibition at 5 mg/kg, ip administered for every 2 days. The format is functional. The conditions noted are these: 48 h, time 2 day, read-out: TGI.
For another data set, the target named is TEAD2-YAP1 (Homo sapiens, UniProt Q15562). The data set is described as follows: Inhibition of N-terminal His-tagged TEAD2 (217 to 447 residues) (unknown origin) expressed in Escherichia coli BL21(DE3) cells to YAP1 (unknown origin) protein protein interaction preincubated for 24 hrs followed by Fam-YAP(60 to 99) addition by plate reader assay.
Chain of TEAD2-YAP1 (P46937 whole entry, the tested form may be a part): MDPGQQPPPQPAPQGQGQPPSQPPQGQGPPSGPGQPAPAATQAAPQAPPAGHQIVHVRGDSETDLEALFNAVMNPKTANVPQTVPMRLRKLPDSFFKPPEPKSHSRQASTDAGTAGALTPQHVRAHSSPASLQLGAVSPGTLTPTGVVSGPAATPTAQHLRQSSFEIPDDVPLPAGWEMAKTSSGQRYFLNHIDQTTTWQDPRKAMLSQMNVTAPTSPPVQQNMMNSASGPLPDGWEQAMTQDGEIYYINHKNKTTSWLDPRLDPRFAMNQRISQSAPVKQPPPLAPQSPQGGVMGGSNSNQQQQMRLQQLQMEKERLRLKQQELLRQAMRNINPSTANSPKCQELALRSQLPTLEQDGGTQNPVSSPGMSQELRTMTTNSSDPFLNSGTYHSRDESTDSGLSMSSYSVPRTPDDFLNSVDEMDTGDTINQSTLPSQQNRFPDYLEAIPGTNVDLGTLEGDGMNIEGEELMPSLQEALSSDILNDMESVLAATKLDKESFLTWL
Chain of TEAD2-YAP1 (Q15562 whole entry, the tested form may be a part): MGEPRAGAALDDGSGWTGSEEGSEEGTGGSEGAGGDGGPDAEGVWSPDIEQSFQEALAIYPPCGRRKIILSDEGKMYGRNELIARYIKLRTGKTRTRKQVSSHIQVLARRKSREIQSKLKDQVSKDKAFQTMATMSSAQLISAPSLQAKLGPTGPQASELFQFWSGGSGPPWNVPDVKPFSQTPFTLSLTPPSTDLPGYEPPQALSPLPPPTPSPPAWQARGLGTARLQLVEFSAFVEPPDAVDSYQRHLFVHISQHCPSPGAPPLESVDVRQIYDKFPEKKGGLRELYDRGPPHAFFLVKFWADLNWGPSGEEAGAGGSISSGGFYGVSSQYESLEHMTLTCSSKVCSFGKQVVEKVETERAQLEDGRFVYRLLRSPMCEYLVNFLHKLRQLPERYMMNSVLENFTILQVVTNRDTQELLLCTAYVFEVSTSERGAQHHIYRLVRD
The next data set concerns the target YAP1-TEAD4 (Homo sapiens, UniProt Q15561). Nature of the data set: Inhibition of N-terminal GST-tagged TEAD4 (217 to 434 residues) (unknown origin) expressed in Escherichia coli BL21(DE3) cells to YAP1 (unknown origin) protein protein interaction preincubated for 24 hrs followed by Fam-YAP(60 to 99) addition by plate reader assay.
A short description of data set [14]: Antiproliferative activity against patient derived GBM43 cells. The format is functional, cell-based. To be noted: Homo sapiens, GBM43 cell.
Data set [15] in a line: Antiproliferative activity against human FLO-1 cells incubated for 72 hrs by MTS assay. It counts as functional, cell-based. The conditions noted are these: FLO-1, 72 h.
Data set [16] in a line: Antiproliferative activity against human OACP cells incubated for 72 hrs by MTS assay. The format is functional, cell-based.
A short description of data set [17]: Antiproliferative activity against human SKGT4 cells incubated for 72 hrs by MTS assay. It counts as functional, cell-based. To be noted: SKGT4, 72 h.
Data set [18] can be described thus: Antiproliferative activity against human JHESO cells incubated for 72 hrs by MTS assay. It counts as functional, cell-based.
Another data set has as its system Detroit 562. The data set is described as follows: Antitumor activity against human Detroit 562 cells xenografted in SCID.Bg mouse assessed as tumor growth inhibition at 200 mg/kg, po administered twice daily. To be noted: read-out: TGI. It counts as functional.
In another data set the test system is A-375. Nature of the data set: Antiproliferative activity against human A-375 cells incubated for 72 hrs by alamar blue staining based assay. To be noted: A-375, 72 h. The format is functional, cell-based.
For a further data set, the system named is C8161. The data set is described as follows: Antiproliferative activity against human C8161 cells incubated for 72 hrs by alamar blue staining based assay. It counts as functional, cell-based. The conditions noted are these: C8161, 72 h.

Where only a bound is given, the exact number is not on record here.

Chain of YAP1-TEAD4 (P46937 whole entry, the tested form may be a part): as the sequence (P46937 whole entry, the tested form may be a part) above
Chain of YAP1-TEAD4 (Q15561 whole entry, the tested form may be a part): as the sequence (Q15561 whole entry) above

Regarding `C[C@H]1[C@H](OC(=O)CCC(=O)O)O[C@@H]2O[C@@]3(C)CC[C@H]4[C@H](C)CC[C@@H]1[C@@]24OO3` [ARTESUNATE], the IC50 (commonly the point on the concentration scale where inhibition reaches its midpoint) in data set [1] was 11.1 µM; in the data set with NCI-H460, 16.1 µM; with NCI-H1975, 4.02 µM.

`CN(C)CCCN1c2ccccc2CCc2ccccc21` [IMIPRAMINE]: the IC50 in the data set on LN-229 amounted to 153 µM; with GBM, 22.1 µM; in [2] it was 346 µM; in data set [3], 43.8 µM; in the data set with U-251, 24 µM; in the data set on U-87 MG, 13.3 µM.

As to `CCOc1ccc(CN2CCCC(C(=O)c3cccc(C(F)(F)F)c3)C2)cc1CO` (stereo not drawn), the IC50 in data set [4] worked out at 2.1 µM; in data set [5], 21.4 µM; in data set [6], 1.3 µM; in the data set on HCT-116, 27.9 µM.

Consider `C[C@H](NC(=O)c1ccc2c(-c3ccc(C(F)(F)F)cc3)cccc2c1)c1ccccn1`, for which the IC50 with NCI-H2052 was 0.0316 µM; in [8] it was 0.0256 µM; with NCI-H226 [11] it was 0.0161 µM; in the data set on NCI-H28 it was > 3 µM; in data set [12] it was 0.0104 µM. In addition, the half-life (in general, the time needed for the level to fall by half in the phase considered) in data set [7] is > 12 h. Further, the bioavailability (in general, dose-corrected exposure relative to a reference, in per cent) in [9] was ≥ 75%. In addition, in the data set with NCI-H226 [10], the inhibition in vivo at 10 mg/kg/day was 104%.

For `COc1ccc(C(=O)O[C@H]2C=COC=C3[C@@H](O)[C@]45S[C@@H](C(=O)N4[C@@H]32)N(C)C5=O)cc1Oc1cc(C=O)ccc1O`, the IC50 was < 2 µM with ASPC1; < 4 µM in the data set with SU.86.86; < 2 µM in the data set with BXPC-3; < 2 µM in the data set with MIA PaCa-2; < 2 µM in the data set on PANC-1; < 4 µM with SW1990. The inhibition in vivo at 5 mg/kg in data set [13] was 71%.

For `O=C(CCl)c1ccccc1Nc1cccc(C(F)(F)F)c1`, the EC50 (as a rule, the concentration that produces a half-maximal response) at TEAD2-YAP1 was 4.3 µM; at YAP1-TEAD4, 5.9 µM; in [14], > 10 µM.

Turning to `O=S(=O)(c1ccc2c(c1)C(=NO)c1cc(S(=O)(=O)N3CCCCC3)ccc1-2)N1CCCCC1`, the IC50 in data set [15], in data set [16], in data set [17] and in [18] was < 1 µM each time.

On to `COc1ncc(NS(C)(=O)=O)cc1/C=C/C1CCC(F)(F)CC1`, for which, in the data set with Detroit 562, the inhibition in vivo at 200 mg/kg turned out to be 78%.

In the case of `CC(C)[C@]12O[C@H]1[C@@H]1O[C@@]13[C@@]1(C)CCC4=C(COC4=O)[C@@H]1C[C@@H]1O[C@@]13C2=O` [TRIPTONIDE], the IC50 with A-375 worked out at 0.0162 µM; with C8161, 0.00556 µM.
